Measurements published in patent publication US20020137929A1, “1 - (3-heterocyclylphenyl) isothiourea, -isourea, -guanidine and -amidine herbicidal agents” (Intellectual Property Department, BASF Aktiengesellschaft, priority 1998, published 2002).

Legend:
[1] = tested on: CYPIR (Rice Flatsedge); test: Preemergence weed control under flooded paddy conditions; type: in vivo, Cyperus iria; details: rated 3-4 weeks after treatment
Method in brief: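 Silt loam, seeds in top 0.5 cm; flood held 1.5-3 cm; test cpd as acetone/water 50/50 into flood water, ~0.0313-0.500 kg/ha a.i.; greenhouse 3-4 wk; visual 0-9 score vs control.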

[2] = tested on: GALAP (Galium); test: Preemergence herbicidal evaluation; type: in vivo, Galium aparine; details: rated 4-5 weeks after treatment, rating scale 0-9
Method in brief: (§1)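 Preemergence soil application of compound, sprayed in aqueous acetone at rates equivalent to about 0.0156 to 0.500 kg per hectare onto freshly sown cups. Plant response was judged by eye on a 0-9 scale four to five weeks later.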

[3] = tested on: TRZAWR (Wheat, Winter, cv Riband); test: Preemergence herbicidal evaluation; type: in vivo, Triticum aestivum; details: rated 4-5 weeks after treatment, rating scale 0-9
Method in brief: as §1

[4] = tested on: ORYSAT (Rice, Tebonnet); test: Postemergence herbicidal evaluation; type: in vivo, Oryza sativa, (L.) Tebonnet; details: postemergence
Method in brief: (§2)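 Two-week seedlings sprayed postemergence at 40 psi; formulation: 1:1 acetone/water, 0.5% TWEEN 20; application ≈0.0156–0.500 kg/ha. Greenhouse grow-out, then 0–9 visual scoring at 4–5 weeks.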

[5] = tested on: ORYSAT (Rice, Tebonnet); test: Preemergence herbicidal evaluation; type: in vivo, Oryza sativa, (L.) Tebonnet; details: rated 4-5 weeks after treatment, rating scale 0-9
Method in brief: as §1

[6] = tested on: GLXMAW (Soybean, Williams); test: Preemergence herbicidal evaluation; type: in vivo, Glycine max, (L.) Merr. cv Williams; details: rated 4-5 weeks after treatment, rating scale 0-9
Method in brief: as §1

[7] = tested on: MOOVA (Monochoria); test: Preemergence weed control under flooded paddy conditions; type: in vivo, Monochoria vaginalis; details: rated 3-4 weeks after treatment
Method in brief: (§3)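 Flooded-pot preemergence screen with silt loam and seeds in the upper 0.5 cm. Dose about 0.0313 to 0.500 kg/ha, delivered into flood water; visual 0-9 score after 3 to 4 weeks.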

[8] = tested on: CASOB (Sicklepod); test: Postemergence herbicidal evaluation; type: in vivo, Cassia obtusifolia; details: postemergence
Method in brief: as §2

[9] = tested on: ZEAMX (Corn, Field); test: Preemergence herbicidal evaluation; type: in vivo, Zea mays; details: rated 4-5 weeks after treatment, rating scale 0-9
Method in brief: as §1

[10] = tested on: ECHCG (Barnyardgrass); test: Postemergence herbicidal evaluation; type: in vivo, Echinochloa crus-galli; details: postemergence
Method in brief: as §2

[11] = tested on: SETVI (Foxtail, Green); test: Preemergence herbicidal evaluation; type: in vivo, Setaria viridis; details: rated 4-5 weeks after treatment, rating scale 0-9
Method in brief: as §1

[12] = tested on: SAGPY (Arrowhead (Pygmaea)); test: Preemergence weed control under flooded paddy conditions; type: in vivo, Sagittaria pygmaea; details: rated 3-4 weeks after treatment
Method in brief: as §3

[13] = tested on: CHEAL (Lambsquarters, Common); test: Postemergence herbicidal evaluation; type: in vivo, Chenopodium album; details: postemergence
Method in brief: as §2

For COc1cccc(CN2C(=O)CSC2=Nc2cc(-n3c(=O)cc(C(F)(F)F)n(C)c3=O)c(F)cc2Cl)c1 [Compound 137, 3-{4-Chloro-2-fluoro-5-{[3-(m-methoxybenzyl)-4-oxo-2-thiazolidinylidene]amino}phenyl}-1-methyl-6-(trifluoromethyl)-2,4(1H,3H)-pyrimidinedione], the “herbicidal effect rating, CYPIR” value ([1]; 0.0313 kg/ha) was 3.0, the “herbicidal effect rating, CYPIR” value ([1]; 0.0625 kg/ha) was 2.0 and the “herbicidal effect rating, CYPIR” value ([1]; 0.1250 kg/ha) was 2.0. The “herbicidal effect rating, CYPIR” value ([1]; 0.2500 kg/ha) was 4.0, the “Preemergence herbicidal rating GALAP” value ([2]; rate 0.0625 kg/ha) was 0.0 and the “Preemergence herbicidal rating GALAP” value ([2]; rate 0.1250 kg/ha) was 0.0. The “Preemergence herbicidal rating GALAP” value ([2]; rate 0.2500 kg/ha) was 0.0, the “Preemergence herbicidal rating TRZAWR” value ([3]; rate 0.0625 kg/ha) was 0.0 and the “Preemergence herbicidal rating TRZAWR” value ([3]; rate 0.1250 kg/ha) was 0.0. The “Preemergence herbicidal rating TRZAWR” value ([3]; rate 0.2500 kg/ha) was 0.0, the “herbicidal rating ORYSAT” value ([4]; rate 0.0156 kg/ha) was 3.0 and the “herbicidal rating ORYSAT” value ([4]; rate 0.0313 kg/ha) was 3.0. For the same compound, the “herbicidal rating ORYSAT” value ([4]; rate 0.0625 kg/ha) was 3.5, the “Preemergence herbicidal rating ORYSAT” value ([5]; rate 0.0625 kg/ha) was 0.0 and the “Preemergence herbicidal rating ORYSAT” value ([5]; rate 0.1250 kg/ha) was 0.0. The “Preemergence herbicidal rating ORYSAT” value ([5]; rate 0.2500 kg/ha) was 0.0, the “Preemergence herbicidal rating GLXMAW” value ([6]; rate 0.0625 kg/ha) was 0.0 and the “Preemergence herbicidal rating GLXMAW” value ([6]; rate 0.1250 kg/ha) was 0.0. For the same compound, the “Preemergence herbicidal rating GLXMAW” value ([6]; rate 0.2500 kg/ha) was 1.0, the “herbicidal effect rating, MOOVA” value ([7]; 0.0313 kg/ha) was 4.0 and the “herbicidal effect rating, MOOVA” value ([7]; 0.0625 kg/ha) was 5.0. For the same compound, the “herbicidal effect rating, MOOVA” value ([7]; 0.1250 kg/ha) was 5.0, the “herbicidal effect rating, MOOVA” value ([7]; 0.2500 kg/ha) was 8.0 and the “herbicidal rating CASOB” value ([8]; rate 0.0156 kg/ha) was 1.0. The “herbicidal rating CASOB” value ([8]; rate 0.0313 kg/ha) was 1.0, the “herbicidal rating CASOB” value ([8]; rate 0.0625 kg/ha) was 4.0 and the “Preemergence herbicidal rating ZEAMX” value ([9]; rate 0.0625 kg/ha) was 0.0. For the same compound, the “Preemergence herbicidal rating ZEAMX” value ([9]; rate 0.1250 kg/ha) was 0.0, the “Preemergence herbicidal rating ZEAMX” value ([9]; rate 0.2500 kg/ha) was 0.0 and the “herbicidal rating ECHCG” value ([10]; rate 0.0156 kg/ha) was 2.0. For the same compound, the “herbicidal rating ECHCG” value ([10]; rate 0.0313 kg/ha) was 1.0, the “herbicidal rating ECHCG” value ([10]; rate 0.0625 kg/ha) was 3.0 and the “Preemergence herbicidal rating SETVI” value ([11]; rate 0.0625 kg/ha) was 0.0. For the same compound, the “Preemergence herbicidal rating SETVI” value ([11]; rate 0.1250 kg/ha) was 0.0, the “Preemergence herbicidal rating SETVI” value ([11]; rate 0.2500 kg/ha) was 2.0 and the “herbicidal effect rating, SAGPY” value ([12]; 0.0313 kg/ha) was 0.0. For the same compound, the “herbicidal effect rating, SAGPY” value ([12]; 0.0625 kg/ha) was 0.0, the “herbicidal effect rating, SAGPY” value ([12]; 0.1250 kg/ha) was 0.0 and the “herbicidal effect rating, SAGPY” value ([12]; 0.2500 kg/ha) was 3.0. For the same compound, the “herbicidal rating CHEAL” value ([13]; rate 0.0156 kg/ha) was 6.0, the “herbicidal rating CHEAL” value ([13]; rate 0.0313 kg/ha) was 9.0 and the “herbicidal rating CHEAL” value ([13]; rate 0.0625 kg/ha) was 9.0.
